PubChem BioAssay AID1259407 (Chemical Carcinogenesis Research Information System (CCRIS), 2018)
Activity calls are given as the source filed them. The rule behind the calls is not given here.

Tested on: CCRIS mutagenicity, Ames/micronucleus/aberration tests
Experiment: CCRIS mutagenicity studies

`CCCN(CCC)C(=O)SCC` was tested, and the mutagenic call (End Point: In vitro chromosomal aberrations, Test System: Chinese hamster ovary (CHO) cells, Metabolic Activation: None) was “inactive; negative”, the mutagenic call (End Point: In vitro chromosomal aberrations, Test System: Chinese hamster ovary (CHO) cells, Metabolic Activation: Rat, Liver, S-9) was “inactive; negative” and the mutagenic call (End Point: In vitro chromosomal aberrations, Test System: Mouse lymphoma cells, Strain/Indicator: L5178Y (tk+/tk-), Metabolic Activation: None) was “active; positive (structure and ploidy)”. The mutagenic call (End Point: In vitro chromosomal aberrations, Test System: Mouse lymphoma cells, Strain/Indicator: L5178Y (tk+/tk-), Metabolic Activation: S-9) was “inactive; negative”, the mutagenic call (Test System: AMES SALMONELLA TYPHIMURIUM, Strain/Indicator: TA97, Metabolic Activation: HAMSTER, LIVER, S-9, AROCLOR 1254 (10 OR 30%), Method: PREINCUBATION) was “inactive; negative” and the mutagenic call (Test System: AMES SALMONELLA TYPHIMURIUM, Strain/Indicator: TA97, Metabolic Activation: NONE, Method: PREINCUBATION) was “inactive; negative”. The mutagenic call (Test System: AMES SALMONELLA TYPHIMURIUM, Strain/Indicator: TA97, Metabolic Activation: RAT, LIVER, S-9, AROCLOR 1254 (10 OR 30%), Method: PREINCUBATION) was “inactive; negative”, the mutagenic call (Test System: AMES SALMONELLA TYPHIMURIUM, Strain/Indicator: TA98, Metabolic Activation: HAMSTER, LIVER, S-9, AROCLOR 1254 (10%), Method: PREINCUBATION) was “inactive; negative” and the mutagenic call (Test System: AMES SALMONELLA TYPHIMURIUM, Strain/Indicator: TA98, Metabolic Activation: HAMSTER, LIVER, S-9, AROCLOR 1254 (30%), Method: PREINCUBATION) was “inactive; negative”. For the same molecule, the mutagenic call (Test System: AMES SALMONELLA TYPHIMURIUM, Strain/Indicator: TA98, Metabolic Activation: NONE, Method: PREINCUBATION) was “inactive; negative”, the mutagenic call (Test System: AMES SALMONELLA TYPHIMURIUM, Strain/Indicator: TA98, Metabolic Activation: RAT, LIVER, S-9, AROCLOR 1254 (10%), Method: PREINCUBATION) was “inactive; negative” and the mutagenic call (Test System: AMES SALMONELLA TYPHIMURIUM, Strain/Indicator: TA98, Metabolic Activation: RAT, LIVER, S-9, AROCLOR 1254 (30%), Method: PREINCUBATION) was “inactive; negative”. For the same molecule, the mutagenic call (Test System: AMES SALMONELLA TYPHIMURIUM, Strain/Indicator: TA100, Metabolic Activation: HAMSTER, LIVER, S-9, AROCLOR 1254 (10%), Method: PREINCUBATION) was “inactive; negative”, the mutagenic call (Test System: AMES SALMONELLA TYPHIMURIUM, Strain/Indicator: TA100, Metabolic Activation: HAMSTER, LIVER, S-9, AROCLOR 1254 (30%), Method: PREINCUBATION) was “inactive; negative” and the mutagenic call (Test System: AMES SALMONELLA TYPHIMURIUM, Strain/Indicator: TA100, Metabolic Activation: NONE, Method: PREINCUBATION) was “inactive; negative”. For the same molecule, the mutagenic call (Test System: AMES SALMONELLA TYPHIMURIUM, Strain/Indicator: TA100, Metabolic Activation: RAT, LIVER, S-9, AROCLOR 1254 (10%), Method: PREINCUBATION) was “inactive; negative”, the mutagenic call (Test System: AMES SALMONELLA TYPHIMURIUM, Strain/Indicator: TA100, Metabolic Activation: RAT, LIVER, S-9, AROCLOR 1254 (30%), Method: PREINCUBATION) was “inactive; negative” and the mutagenic call (Test System: AMES SALMONELLA TYPHIMURIUM, Strain/Indicator: TA1535, Metabolic Activation: HAMSTER, LIVER, S-9, AROCLOR 1254 (10 OR 30%), Method: PREINCUBATION) was “inactive; negative”. For the same molecule, the mutagenic call (Test System: AMES SALMONELLA TYPHIMURIUM, Strain/Indicator: TA1535, Metabolic Activation: NONE, Method: PREINCUBATION) was “inactive; negative”, the mutagenic call (Test System: AMES SALMONELLA TYPHIMURIUM, Strain/Indicator: TA1535, Metabolic Activation: RAT, LIVER, S-9, AROCLOR 1254 (10 OR 30%), Method: PREINCUBATION) was “inactive; negative” and the mutagenic call (Test System: AMES SALMONELLA TYPHIMURIUM, Strain/Indicator: TA1537, Metabolic Activation: HAMSTER, LIVER, S-9, AROCLOR 1254 (10 OR 30%), Method: PREINCUBATION) was “inactive; negative”. The mutagenic call (Test System: AMES SALMONELLA TYPHIMURIUM, Strain/Indicator: TA1537, Metabolic Activation: NONE, Method: PREINCUBATION) was “inactive; negative”, the mutagenic call (Test System: AMES SALMONELLA TYPHIMURIUM, Strain/Indicator: TA1537, Metabolic Activation: RAT, LIVER, S-9, AROCLOR 1254 (10 OR 30%), Method: PREINCUBATION) was “inactive; negative” and the mutagenic call (Test System: Ames Salmonella typhimurium, Strain/Indicator: TA98, Metabolic Activation: None, Method: Plate incorporation amd preincubation (2 trials)) was “inactive; negative. (cytotoxicity at doses of 1000 ug/plate and above.)”. The mutagenic call (Test System: Ames Salmonella typhimurium, Strain/Indicator: TA98, Metabolic Activation: Rat, Liver, S-9, Aroclor, Method: Plate incorporation) was “inactive; negative. (cytotoxicity at doses of 1000 ug/plate and above.)”, the mutagenic call (Test System: Ames Salmonella typhimurium, Strain/Indicator: TA100, Metabolic Activation: None, Method: Plate incorporation amd preincubation (2 trials)) was “inactive; negative. (cytotoxicity at doses of 1000 ug/plate and above.)” and the mutagenic call (Test System: Ames Salmonella typhimurium, Strain/Indicator: TA100, Metabolic Activation: Rat, Liver, S-9, Aroclor, Method: Plate incorporation) was “inactive; negative. (cytotoxicity at doses of 1000 ug/plate and above.)”. For the same molecule, the mutagenic call (Test System: Ames Salmonella typhimurium, Strain/Indicator: TA1535, Metabolic Activation: None, Method: Plate incorporation amd preincubation (2 trials)) was “inactive; negative. (cytotoxicity at doses of 1000 ug/plate and above.)”, the mutagenic call (Test System: Ames Salmonella typhimurium, Strain/Indicator: TA1535, Metabolic Activation: Rat, Liver, S-9, Aroclor, Method: Plate incorporation) was “inactive; negative. (cytotoxicity at doses of 1000 ug/plate and above.)” and the mutagenic call (Test System: Ames Salmonella typhimurium, Strain/Indicator: TA1537, Metabolic Activation: None, Method: Plate incorporation amd preincubation (2 trials)) was “inactive; negative. (cytotoxicity at doses of 1000 ug/plate and above.)”. The mutagenic call (Test System: Ames Salmonella typhimurium, Strain/Indicator: TA1537, Metabolic Activation: Rat, Liver, S-9, Aroclor, Method: Plate incorporation) was “inactive; negative. (cytotoxicity at doses of 1000 ug/plate and above.)”, the mutagenic call (Test System: E. coli, Strain/Indicator: WP2P/WP2P uvrA, Metabolic Activation: None, Method: Plate incorporation amd preincubation (2 trials)) was “inactive; negative. (cytotoxicity at doses of 1000 ug/plate and above.)” and the mutagenic call (Test System: E. coli, Strain/Indicator: WP2P/WP2P uvrA, Metabolic Activation: Rat, Liver, S-9, Aroclor, Method: Plate incorporation) was “inactive; negative. (cytotoxicity at doses of 1000 ug/plate and above.)”. The mutagenic call (Test System: Mouse lymphoma cells, Strain/Indicator: L5178Y (tk+/tk-), Metabolic Activation: None, Method: Not given by California Department of Pesticides Regulation) was “active; positive”, the mutagenic call (Test System: Mouse lymphoma cells, Strain/Indicator: L5178Y (tk+/tk-), Metabolic Activation: Rat, Liver, S-9, Method: Not given by California Department of Pesticides Regulation) was “active; positive” and the mutagenic call (Test System: UDS primary rat hepatocytes, Strain/Indicator: Thymidine incorporation, Method: Liquid scintillation counting) was “inactive; negative”.
